Results as given in patent publication US20100063047A1 (KALYPSYS, INC., priority 2008, published 2010).

What follows are compounds tested against T1, human H1 (Homo sapiens, UniProt P35367) (assay: In vitro histamine H1 receptor cell-based aequorin bioluminescence antagonist assay). Conditions: CHO-K1 cells expressing human H1 and aequorin; histamine at EC80; read-out: H1 Antagonist EC50.
T1 construct: host or cells: CHO-K1, also expressing mitochondrion-targeted aequorin
Method: In vitro Histamine Receptor Cell-Based Assays
The cell-based assays utilize an aequorin dependent bioluminescence signal. Doubly-transfected, stable CHO—K1 cell lines expressing human H1 or H4, mitochondrion-targeted aequorin, and (H4 only) human G protein Gα16 are obtained from Perkin-Elmer. Cells are maintained in F12 (Ham's) growth medium, containing 10% (vol./vol.) fetal bovine serum, penicillin (100 IU/mL), streptomycin (0.1 mg/mL), zeocin (0.25 mg/mL) and geneticin (0.40 mg/mL). Cell media components are from Invitrogen, Inc. One day prior to assay, the growth medium is replaced with the same, excluding zeocin and geneticin.
For assay preparation, growth medium is aspirated, and cells are rinsed with calcium-free, magnesium-free phosphate-buffered saline, followed by two to three minute incubation in Versene (Invitrogen, Inc.) at 37° C. Assay medium (DMEM:F12 [50:50], phenol-red free, containing 1 mg/mL protease-free bovine serum albumin) is added to collect the released cells, which are then centrifuged. The cell pellet is re-suspended in assay medium, centrifuged once more, and re-suspended in assay medium to a final density of 5×10^6 cells/mL. Coelenterazine-h dye (500 μM in ethanol) is added to a final concentration of 5 μM, and mixed immediately. The conical tube containing the cells is then wrapped with foil to protect the light-sensitive dye. The cells are incubated for four hours further at room temperature (approximately 21° C.) with end-over-end rotation to keep them in suspension.
Just before assay, the dye-loaded cells are diluted to 0.75×10^6 cells/mL (H1 receptor) or 1.5×10^6 cells/mL (H4 receptor) with additional assay medium. Cells are dispensed to 1536 well micro-titer plates at 3 μL/well. To assay receptor antagonism, 60 nl of 100× concentration test compounds in 100% dimethyl sulfoxide (DMSO) are dispensed to the wells, one compound per well, by passive pin transfer, and the plates are incubated for 15 minutes at room temperature. […] The pipette dispenses 3 μL/well of agonist (histamine, at twice the final concentration, where final concentration is a previously determined EC80) in assay medium, with concurrent bioluminescence detection. Agonist activity of test compounds is excluded by separate assays that measure response to test compounds immediately, without added histamine agonist.
CCD image capture on the Lumilux includes a 5 second baseline read prior to agonist addition, and generally a 40 second read per plate after agonist addition. A decrease in bioluminescence signal (measured either as area-under-the-curve, or maximum signal amplitude minus minimum signal amplitude) correlates with receptor antagonism in a dose dependent manner. The negative control is DMSO lacking any test compound. For antagonist assays, the positive controls are diphenhydramine (2-Diphenylmethoxy-N,N-dimethylethylamine, 10 μM final concentration, H1 receptor) or JNJ7777120 (1-[(5-Chloro-1H-indol-2-yl)carbonyl]-4-methyl-piperazine, 10 μM final concentration, H4 receptor). Efficacy is measured as a percentage of positive control activity.

T1 sequence (P35367 whole entry): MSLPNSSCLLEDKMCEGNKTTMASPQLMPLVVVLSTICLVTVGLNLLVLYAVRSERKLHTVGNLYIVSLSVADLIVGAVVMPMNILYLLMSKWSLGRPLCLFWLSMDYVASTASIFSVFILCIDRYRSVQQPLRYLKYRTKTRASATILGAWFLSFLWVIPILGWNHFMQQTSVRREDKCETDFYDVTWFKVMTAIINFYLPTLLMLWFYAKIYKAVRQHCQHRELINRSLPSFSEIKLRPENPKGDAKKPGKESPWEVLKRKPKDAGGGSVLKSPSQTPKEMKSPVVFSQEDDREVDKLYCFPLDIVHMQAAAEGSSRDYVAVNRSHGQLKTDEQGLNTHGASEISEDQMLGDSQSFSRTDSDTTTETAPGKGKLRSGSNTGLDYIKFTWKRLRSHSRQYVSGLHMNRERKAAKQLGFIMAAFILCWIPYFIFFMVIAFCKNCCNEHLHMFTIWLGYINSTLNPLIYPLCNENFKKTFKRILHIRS

Row | Compound | EC50
1 | COc1cccc(CCNc2ncnc3scc(C)c23)c1 [Example 16, [2-(3-Methoxyphenyl)ethyl](5-methylthiopheno[3,2-e]pyrimidin-4-yl)amine] | > 10 µM
2 | Cc1csc2ncnc(NCc3ccc(C(C)(C)C)cc3)c12 [Example 156, N-[(4-tert-butylphenyl)methyl]-5-methylthieno[2,3-d]pyrimidin-4-amine] | > 10 µM
3 | Cc1csc2ncnc(NC3CCC(C)CC3)c12 (centres unmarked) [Example 21, (4-Methylcyclohexyl)(5-methylthiopheno[3,2-e]pyrimidin-4-yl)amine] | > 10 µM
4 | Cc1csc2ncnc(NC3CCCC(C)C3)c12 (centres unmarked) [Example 41, 5-methyl-N-(3-methylcyclohexyl)thieno[2,3-d]pyrimidin-4-amine] | > 10 µM
5 | Cc1csc2ncnc(NC3CCCC3)c12 [Example 65, N-cyclopentyl-5-methylthieno[2,3-d]pyrimidin-4-amine] | > 10 µM
6 | Cc1csc2ncnc(N3CCN(c4ccccc4C#N)CC3)c12 [Example 252, 2-(4-{5-methylthieno[2,3-d]pyrimidin-4-yl}piperazin-1-yl)benzonitrile] | > 10 µM
7 | Cc1csc2ncnc(N3CCN(CC4CCCCC4)CC3)c12 [Example 247, 1-(cyclohexylmethyl)-4-{5-methylthieno[2,3-d]pyrimidin-4-yl}piperazine] | > 10 µM
8 | Cc1csc2ncnc(NCc3ccco3)c12 [Example 75, N-(furan-2-ylmethyl)-5-methylthieno[2,3-d]pyrimidin-4-amine] | > 10 µM
9 | CCOC(=O)CC(C)Nc1ncnc2scc(C)c12 (centres unmarked) [Example 110, ethyl 3-({5-methylthieno[2,3-d]pyrimidin-4-yl}amino)butanoate] | > 10 µM
10 | Cc1csc2ncnc(N3CCN(CCN4CCOCC4)CC3)c12 [Example 269, 4-[2-(4-{5-methylthieno[2,3-d]pyrimidin-4-yl}piperazin-1-yl)ethyl]morpholine] | > 10 µM
11 | Cc1csc2ncnc(N3CCC(Cc4ccccc4)CC3)c12 [Example 240, 4-benzyl-1-{5-methylthieno[2,3-d]pyrimidin-4-yl}piperidine] | > 10 µM
12 | Cc1cccc(N2CCN(c3ncnc4scc(C)c34)CC2C)c1 (centres unmarked) [Example 255, 2-methyl-1-(3-methylphenyl)-4-{5-methylthieno[2,3-d]pyrimidin-4-yl}piperazine] | > 10 µM
13 | c1nc(NCc2ccc(CN3CCOCC3)cc2)c2c3c(sc2n1)CCC3 [Example 309] | > 10 µM
14 | CCC(C)CNc1ncnc2scc(C)c12 (centres unmarked) [Example 67, 5-methyl-N-(2-methylbutyl)thieno[2,3-d]pyrimidin-4-amine] | > 10 µM
15 | CCCCN(C)c1ncnc2scc(C)c12 [Example 187, N-butyl-N,5-dimethylthieno[2,3-d]pyrimidin-4-amine] | > 10 µM
16 | Cc1csc2ncnc(NCC3CCc4cc(Cl)ccc43)c12 (centres unmarked) [Example 30, N-((5-chloro-2,3-dihydro-1H-inden-1-yl)methyl)-5-methylthieno[2,3-d]pyrimidin-4-amine] | > 10 µM
17 | Cc1csc2ncnc(NCc3ccc(C(C)C)cc3)c12 [Example 140, 5-methyl-N-{[4-(propan-2-yl)phenyl]methyl}thieno[2,3-d]pyrimidin-4-amine] | > 10 µM
18 | COC(=O)C1CCN(c2ncnc3scc(C)c23)CC1 [Example 224, methyl 1-{5-methylthieno[2,3-d]pyrimidin-4-yl}piperidine-4-carboxylate] | > 10 µM
19 | Cc1cccc(CNc2ncnc3scc(C)c23)c1 [Example 95, 5-methyl-N-[(3-methylphenyl)methyl]thieno[2,3-d]pyrimidin-4-amine] | > 10 µM
20 | Cc1csc2ncnc(N[C@@H](C)c3ccccc3)c12 [Example 96, 5-methyl-N-[(1S)-1-phenylethyl]thieno[2,3-d]pyrimidin-4-amine] | > 10 µM
21 | Cc1csc2ncnc(NCc3ccccc3F)c12 [Example 104, N-[(2-fluorophenyl)methyl]-5-methylthieno[2,3-d]pyrimidin-4-amine] | > 10 µM
22 | Cc1csc2ncnc(NCc3ccc(F)cc3F)c12 [Example 133, N-[(2,4-difluorophenyl)methyl]-5-methylthieno[2,3-d]pyrimidin-4-amine] | > 10 µM

Row | Compound | EC50
23 | Cc1ccc(CCNc2ncnc3scc(C)c23)cc1 [Example 19] | > 10 µM
24 | CC(=O)c1c(C)[nH]c(C(=O)CSc2ncnc3sc(C)c(C)c23)c1C [Example 304, 1-(4-acetyl-3,5-dimethyl-1H-pyrrol-2-yl)-2-(5,6-dimethylthieno[2,3-d]pyrimidin-4-ylthio)ethanone] | > 10 µM
25 | Cc1csc2ncnc(N(CCO)Cc3ccccc3)c12 [Example 226, 2-[benzyl({5-methylthieno[2,3-d]pyrimidin-4-yl})amino]ethan-1-ol] | > 10 µM
26 | Cc1csc2ncnc(NCC3CC3)c12 [Example 59, N-(cyclopropylmethyl)-5-methylthieno[2,3-d]pyrimidin-4-amine] | > 10 µM
27 | Cc1ccc(C)c(CNc2ncnc3scc(C)c23)c1 [Example 113, N-[(2,5-dimethylphenyl)methyl]-5-methylthieno[2,3-d]pyrimidin-4-amine] | > 10 µM
28 | CCOC(=O)C1CCN(c2ncnc3scc(C)c23)CC1 [Example 44, ethyl 1-{5-methylthieno[2,3-d]pyrimidin-4-yl}piperidine-4-carboxylate] | > 10 µM
29 | Cc1csc2ncnc(NCc3ccccc3)c12 [Example 83, N-benzyl-5-methylthieno[2,3-d]pyrimidin-4-amine] | > 10 µM
30 | Cc1csc2ncnc(NCCCNC(=O)OC(C)(C)C)c12 [Example 163, tert-butyl N-[3-({5-methylthieno[2,3-d]pyrimidin-4-yl}amino)propyl]carbamate] | > 10 µM
31 | COc1ccc(CNc2ncnc3scc(C)c23)cc1 [Example 124, N-[(4-methoxyphenyl)methyl]-5-methylthieno[2,3-d]pyrimidin-4-amine] | > 10 µM
32 | CC(Nc1ncnc2sccc12)c1ccccc1 (centres unmarked) [Example 311, N-(1-phenylethyl)thieno[2,3-d]pyrimidin-4-amine] | > 10 µM
33 | Cc1csc2ncnc(N3CCN(C(=O)OC(C)(C)C)CC3)c12 [Example 250, tert-butyl 4-{5-methylthieno[2,3-d]pyrimidin-4-yl}piperazine-1-carboxylate] | > 10 µM
34 | Cc1csc2ncnc(NCCOc3ccccc3)c12 [Example 122, 5-methyl-N-(2-phenoxyethyl)thieno[2,3-d]pyrimidin-4-amine] | > 10 µM
35 | Cc1csc2ncnc(NCCC(C)C)c12 [Example 69, 5-methyl-N-(3-methylbutyl)thieno[2,3-d]pyrimidin-4-amine] | > 10 µM
36 | Cc1csc2ncnc(NCCc3ccccc3F)c12 [Example 127, N-[2-(2-fluorophenyl)ethyl]-5-methylthieno[2,3-d]pyrimidin-4-amine] | > 10 µM
37 | Cc1csc2ncnc(N[C@H](C)c3ccccc3)c12 [Example 97, 5-methyl-N-[(1R)-1-phenylethyl]thieno[2,3-d]pyrimidin-4-amine] | > 10 µM
38 | Cc1csc2ncnc(NC(C)CC(C)C)c12 (centres unmarked) [Example 79, 5-methyl-N-(4-methylpentan-2-yl)thieno[2,3-d]pyrimidin-4-amine] | > 10 µM
39 | Cc1csc2ncnc(NC(C)CCc3ccccc3)c12 (centres unmarked) [Example 139, 5-methyl-N-(4-phenylbutan-2-yl)thieno[2,3-d]pyrimidin-4-amine] | > 10 µM
40 | c1ccc(CCNc2ncnc3sccc23)cc1 [Example 290, N-phenethylthieno[2,3-d]pyrimidin-4-amine] | > 10 µM
41 | Cc1csc2ncnc(NCc3ccccc3Cl)c12 [Example 130, N-[(2-chlorophenyl)methyl]-5-methylthieno[2,3-d]pyrimidin-4-amine] | > 10 µM
42 | COc1ccc(CNc2ncnc3scc(C)c23)cc1OC [Example 160, N-[(3,4-dimethoxyphenyl)methyl]-5-methylthieno[2,3-d]pyrimidin-4-amine] | > 10 µM
43 | Cc1csc2ncnc(NC3CCC3)c12 [Example 58, N-cyclobutyl-5-methylthieno[2,3-d]pyrimidin-4-amine] | > 10 µM
44 | Cc1csc2ncnc(NCCCN(C)c3ccccc3)c12 [Example 157, N-methyl-N-[3-({5-methylthieno[2,3-d]pyrimidin-4-yl}amino)propyl]aniline] | > 10 µM
